For data set [1], the target named is T1, ATP-dependent translocase ABCB1 (Homo sapiens, UniProt P08183). The data set is described as follows: Inhibition of P-gp in human NCI-H460/R cells assessed as potentiation of doxorubicin-induced cytotoxicity by measuring reduction in doxorubicin IC50 at 0.1 to 2.5 uM incubated for 72 hrs by MTT assay.
Data set [2] has as its target T1, ATP-dependent translocase ABCB1. Kind of data set: Inhibition of P-gp in human Caco2 cells assessed as potentiation of doxorubicin-induced cytotoxicity by measuring reduction in doxorubicin IC50 at 2.2 uM incubated for 24 hrs by MTT assay.
Data set [3] shares this target. Kind of data set: Inhibition of P-gp in HEK293/ABCB1 cells assessed as potentiation of doxorubicin-induced cytotoxicity by measuring doxorubicin IC50 at 1 uM incubated for 48 hrs by MTT assay (Rvb = 8.08 uM).
Data set [4] can be described thus: Inhibition of P-gp in HEK293/ABCB1 cells assessed as potentiation of cisplatin-induced cytotoxicity by measuring cisplatin IC50 at 2 uM incubated for 48 hrs by MTT assay (Rvb = 8.08 uM).

pIC50: −log10 of the molar value. Residues, ends and D or L forms follow the SMILES beside them.

T1 sequence (P08183 whole entry): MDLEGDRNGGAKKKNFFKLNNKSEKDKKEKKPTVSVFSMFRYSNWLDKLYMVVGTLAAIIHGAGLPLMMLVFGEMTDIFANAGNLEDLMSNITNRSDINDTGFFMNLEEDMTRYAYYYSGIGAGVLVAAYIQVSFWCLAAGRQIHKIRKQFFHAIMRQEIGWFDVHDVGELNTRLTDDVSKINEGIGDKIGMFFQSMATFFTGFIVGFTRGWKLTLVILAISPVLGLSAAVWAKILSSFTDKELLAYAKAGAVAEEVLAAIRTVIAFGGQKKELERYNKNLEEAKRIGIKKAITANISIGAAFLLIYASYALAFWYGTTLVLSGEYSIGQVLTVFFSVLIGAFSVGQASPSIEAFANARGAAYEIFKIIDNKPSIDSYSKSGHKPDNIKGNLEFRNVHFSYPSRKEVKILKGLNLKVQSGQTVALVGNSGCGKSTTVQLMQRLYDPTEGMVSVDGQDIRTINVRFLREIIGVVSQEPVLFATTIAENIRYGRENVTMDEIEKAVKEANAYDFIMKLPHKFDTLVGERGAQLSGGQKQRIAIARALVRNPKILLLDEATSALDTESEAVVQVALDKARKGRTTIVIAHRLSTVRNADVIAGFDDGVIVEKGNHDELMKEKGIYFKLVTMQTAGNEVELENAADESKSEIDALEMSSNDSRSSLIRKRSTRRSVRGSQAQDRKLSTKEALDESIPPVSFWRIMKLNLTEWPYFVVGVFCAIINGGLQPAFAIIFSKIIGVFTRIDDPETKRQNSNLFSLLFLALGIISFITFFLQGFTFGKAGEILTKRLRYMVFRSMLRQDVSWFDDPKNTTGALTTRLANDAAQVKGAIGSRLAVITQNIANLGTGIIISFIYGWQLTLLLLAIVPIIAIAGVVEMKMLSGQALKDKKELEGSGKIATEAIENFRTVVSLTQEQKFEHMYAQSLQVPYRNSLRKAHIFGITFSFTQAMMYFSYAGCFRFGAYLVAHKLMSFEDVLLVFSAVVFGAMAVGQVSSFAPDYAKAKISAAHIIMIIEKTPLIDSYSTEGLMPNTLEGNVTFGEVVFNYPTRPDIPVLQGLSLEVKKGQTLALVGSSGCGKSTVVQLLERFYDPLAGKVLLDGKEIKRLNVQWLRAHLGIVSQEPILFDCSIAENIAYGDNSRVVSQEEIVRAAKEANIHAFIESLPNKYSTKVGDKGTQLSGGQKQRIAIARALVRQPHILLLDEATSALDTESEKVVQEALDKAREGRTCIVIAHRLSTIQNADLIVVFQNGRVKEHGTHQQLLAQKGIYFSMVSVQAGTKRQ

Take `CC(C)[C@H](NC(=O)[C@H](CO)NC(=O)[C@@H](N)Cc1ccc(O)cc1)C(=O)O` (H-Tyr-Ser-Val-OH): in data set [1], the pIC50 was 6.15. In the case of `CC1(C)O[C@H]2CC(=O)OC[C@]23[C@H]2CC[C@@]4(C)[C@H](c5ccoc5)OC(=O)[C@H]5O[C@]54[C@]2(C)C(=O)C[C@@H]13` [Limonin], the pIC50 in data set [2] is 4.72. Turning to `CCOc1cc(O)cc2c1C[C@@H](OC(=O)c1cc(OCC)c(OCC)c(OCC)c1)[C@@H](c1cc(O)c(OCC)c(OCC)c1)O2`, the negative-log IC50 (pIC50) in data set [3] was 6.21; in data set [4], 6.04.

These data come from BindingDB's records for doi:10.1016/j.ejmech.2019.05.027 (Central University of Punjab, 2019).
